# Test results reported in US20080200439A1, “Methods and compositions for modulating BK channel activity and vasodilation” (University of Tennessee Research Foundation, priority 2006, published 2008).
# Target: T1, homomeric cbv1 (rslo1) channels (Rattus norvegicus, UniProt Q62976)
# T1 construct: Full-length cDNA coding for cbv1-subunits was cloned from rat cerebral artery myocytes by PCR; expressed in transfected cells; host or cells: Xenopus laevis oocytes (cRNA injection)
# Assay: Inside-out patch-clamp of homomeric cbv1 channels expressed in Xenopus oocytes
# Type: cell-based
# Conditions: I/O patches, Ca2+i 10 μM, ±20 mV, read-out: Average NPo (% of control)
# From the text: cRNA Preparation and Injection into Xenopus Oocytes. Full-length cDNA coding for cbv1-subunits was cloned from rat cerebral artery myocytes by PCR and ligated to the PCR-XL-TOPO cloning vector (Invitrogen Corp., Carlsbad, Calif., United States of America) (Jaggar et al., 2005). cDNA coding for cbv1-subunits was cleaved from the cloning vector by BamHI (Invitrogen Corp., Carlsbad, Calif., United States of America) and XhoI (Promega, Madison, Wis., United States of America) and directly inserted into the pOX vector for expression in Xenopus oocytes. pOX-cbv1 was linearized with NotI (Promega, Madison, Wis., United States of America) and transcribed in vitro using T3 polymerase. […]
# Electrophysiology. […] Single-channel and macroscopic currents were recorded from inside-out (I/O) or outside-out (O/O) patches. […] Nominal free Ca^2+ was calculated with MaxChelator Sliders (C. Patton, Stanford University, California, United States of America) and validated experimentally using Ca^2+-selective electrodes (Corning Incorporated Science Products Division, Corning, N.Y., United States of America). […]
# Currents were recorded using an EPC8 amplifier (HEKA Electronics, Lambrecht/Pfalz, Germany) at 1 kHz using a low-pass, eight-pole Bessel filter 902LPF (Frequency Devices, Haverhill, Mass., United States of America). […]
# T1 sequence (Q62976 1-1148 isoform Q62976-2): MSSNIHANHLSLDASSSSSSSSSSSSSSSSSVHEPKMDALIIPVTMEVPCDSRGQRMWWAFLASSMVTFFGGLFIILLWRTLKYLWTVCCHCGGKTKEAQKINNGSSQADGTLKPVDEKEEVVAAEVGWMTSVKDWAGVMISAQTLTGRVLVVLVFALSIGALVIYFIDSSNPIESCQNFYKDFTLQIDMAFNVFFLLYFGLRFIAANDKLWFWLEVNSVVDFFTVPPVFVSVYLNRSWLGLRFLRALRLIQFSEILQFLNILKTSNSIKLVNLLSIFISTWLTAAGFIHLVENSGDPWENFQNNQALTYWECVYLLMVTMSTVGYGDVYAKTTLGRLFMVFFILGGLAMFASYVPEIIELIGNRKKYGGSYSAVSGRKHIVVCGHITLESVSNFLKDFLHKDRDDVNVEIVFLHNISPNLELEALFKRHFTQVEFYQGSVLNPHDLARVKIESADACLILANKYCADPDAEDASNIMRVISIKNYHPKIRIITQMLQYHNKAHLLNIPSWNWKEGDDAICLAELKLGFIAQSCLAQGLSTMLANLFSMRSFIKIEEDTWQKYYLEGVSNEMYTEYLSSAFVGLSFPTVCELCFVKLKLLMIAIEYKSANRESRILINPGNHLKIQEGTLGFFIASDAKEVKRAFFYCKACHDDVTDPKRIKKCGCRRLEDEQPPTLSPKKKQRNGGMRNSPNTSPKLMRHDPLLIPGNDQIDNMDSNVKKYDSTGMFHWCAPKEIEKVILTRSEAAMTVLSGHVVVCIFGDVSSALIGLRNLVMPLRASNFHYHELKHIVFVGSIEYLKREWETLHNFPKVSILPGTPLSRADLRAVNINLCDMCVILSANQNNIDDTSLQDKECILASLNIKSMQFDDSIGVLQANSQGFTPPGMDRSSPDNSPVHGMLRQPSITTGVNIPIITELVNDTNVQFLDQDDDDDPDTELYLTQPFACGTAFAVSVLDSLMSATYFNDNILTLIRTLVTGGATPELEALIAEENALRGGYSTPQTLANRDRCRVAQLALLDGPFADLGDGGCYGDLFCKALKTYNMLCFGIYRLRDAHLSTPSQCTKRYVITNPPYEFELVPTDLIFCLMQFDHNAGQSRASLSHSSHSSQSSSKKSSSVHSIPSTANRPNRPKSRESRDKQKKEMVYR
smiles,measurement,value
"C[C@H](CCC(=O)O)[C@H]1CC[C@H]2[C@@H]3CC[C@@H]4C[C@H](O)CC[C@]4(C)[C@H]3CC[C@]12C [LC, 5β-cholanic acid 3α-ol]",remaining activity at 150 µM,112 ± 13%
